Assay results: patent US8158623B2, “Heptacyclic compounds and the pharmaceutical uses thereof for preventing and treating diabetes and metabolic syndrome” (Shanghai Institute of Materia Medica Chinese Academy of …, priority 2007, dated 2012)

What was measured:
[1] = system: 3T3-L1 adipocytes; test: Glucose uptake in 3T3-L1 adipocytes (3H-labelled 2-deoxyglucose); format: cell-based; conditions: for Glucose uptake, Mean, Compound + Insulin Group (Control Group = 1.000): with insulin, relative to control without insulin; for fold induction at 10 µM: Mus musculus, 3T3-L1, 2 h incubation, read-out: Glucose uptake, Mean, Compound Group (Control Group = 1.000)
Procedure: The effect of the compounds on baseline or insulin-stimulated glucose uptake was evaluated, using the model of glucose uptake in 3T3-L1 adipocytes.
Adipose tissue is the target of glucose metabolism in vivo. The sensitivity for insulin and availability of glucose in adipose tissues are tightly associated with the insulin resistance. The transportation of glucose into adipocytes is a rate-limiting step for the glucose metabolism, and also an important indicator for evaluating the sensitivity for insulin in adipose tissue. 3T3-L1 is a kind of pre-adipocyte, and can become adipocyte after differentiated completely. Therefore, 3T3-L1 is a desirable model for the glucose transport.
Pre-adipocyte, 3T3-L1 was induced to differentiate under certain conditions. After 3T3-L1 differentiated into adipocytes, the compounds of interest with different concentrations and DMSO (used as control) can be added and incubated with the adipocytes for different periods, then the glucose uptake could be determined. For evaluating the ability for a compound to stimulate glucose uptake, the baseline and insulin-induced glucose uptake were determined, and the increase in baseline and insulin-induced glucose uptake upon treatment of the compounds as compared with control group (with 0.1% DMSO) is calculated, based on the ^3H-labelled 2-deoxyglucose inside the cells.
3T3-L1 cells purchased from Karolinska Institute (Sweden) were cultured in DMEM medium containing 10% fetal calf serum at 37° C., under 5% CO2. The cells were passaged every 3-4 days. The cells were inoculated into 12-well plate. Upon confluence, culture medium containing 0.5 mM 3-isobutyl-1-methylxanthine, 0.25 μM dexamethasone and 5 μg/ml insulin was added and cultured for 3 days. Then, the culture medium was replaced by a medium containing 5 μg/ml insulin and further cultured for 3 days. The insulin was removed, and the cells had differentiated completely into mature adipocytes after 2 days which could be used to determine the glucose uptake.
23 compounds chosen by the inventors were added into the culture medium of adipocytes in a dose of 10 μM. After incubation for 2 h, the effect of the compounds on glucose uptake in 3T3-L1 cells was observed. Culture medium without compounds was used as negative control. The control group only supplemented with insulin and the experiment group supplemented with compounds plus insulin were also employed to observe the effect of the compounds on glucose uptake.

[2] = system: Acetyl CoA Carboxylase (ACC); test: Phosphorylation of ACC in HepG2 cell (Western blot); format: cell-based, Human; conditions: HepG2, 50 uM, 5 minutes, P<0.01 or P<0.05
Procedure: (§1) Human hepatoma carcinoma cell strain (HepG2, purchased from the cell bank of Shanghai Institute of Cell Biology of Chinese Academy) was used. The Human hepatoma carcinoma cells were passaged by 0.1% pancreatin/0.02% EDTA digestion, and cultured in a incubator at 37° C. using MEM culture medium containing 10% FBS, under 5% CO2/95%.
(§2) HepG2 cells were cultured in 6-well plates for 48 hours until 70%-80% confluence. Serum starvation was started by changing medium with MEM containing 0.5% BSA. After starvation for 6 hours, cells were treated with the compounds (final concentration of 50 uM, containing 0.25% DMSO) for 5 minutes. The culture medium was discarded, and cells were harvested and washed for twice with pre-cooled PBS. The washing liquid was discarded, and any residual PBS was blotted dry. DMSO without heptacyclic compounds was used as control.
(§3) Extraction of total cellular protein: 150 μl/well homogenizing buffer (137 mM NaCl, 2.7 mM KCl, 1 mM MgCl2, 0.5 mM Na3VO4, 1% Triton X-100, 10% Glycerol, 20 mM Tris-HCl pH 7.8, 1 ug/ml Leupeptin, 0.2 mM PMSF, 10 mM NaF, 1 ug/ml Aprotinin, 1 mM EDTA, 1 mM DTT, 5 mM Sodium pyrophosphate, 1 mM Benzamidine) was added. Cells were collected into a 1.5 ml centrifuge tube using cell scraper. Cells were homogenized using sonicator (5 W of power) for 2 times (3 seconds per time), and shaken on a shaker for 1 hour. Supernatant (i.e., total cellular protein) was collected by centrifuging at 14000 rpm for 15 min at 4° C., and stored at −70° C. until use. After the protein concentration was determined by Bradford method, the supernatant was formulated as the loading sample with final concentration of 0.6 mg/ml. The whole preparation process was performed at 4° C.
(§4) Protein Electrophoresis: After being treated at 95° C. for 5 min, the loading sample was loaded (15 μg protein/lane). The protein was separated on 7.5% SDS-acrylamide gel for 1-2 hours under the voltage of 80-120 V.
(§5) Electrotransferring the protein and blocking the membrane: After electrophoresis was finished, the protein was transferred to PVDF membrane using semi-dry transferring slot based on 0.8 mA/cm^2 membrane area under the electric current of 80 mA for 2 hours. After that, the membrane was shaken for 2 hours with 7.5% skim milk/TTBS to block the membrane.
(§6) Antigen-antibody reaction: After the blocking process was finished, the membrane was incubated with primary antibody (antibody against phosphorylated ACC (P-ACC) and antibody against phosphorylated AMPK (P-AMPK), all purchased from Cell signaling (USA), with the working concentration of 1:1000) overnight at 4° C. The membrane was removed, and the primary antibody was recovered. The membrane was washed 5 times, each for 10 min in TTBS. The membrane was shaken for 2 hours with the secondary antibody (horseradish peroxidase-conjugated goat-anti-rabbit IgG antibody, purchased from Bio-rad (USA), with the working concentration of 1:5000) at room temperature. The secondary antibody was discarded. The membrane was washed 5 times, each for 10 min in TTBS in order to remove the unbound secondary antibody.
(§7) ECL exposure and development: Luminescent agents, ECL 1, 2, were mixed homogeneously, and incubated with the membrane for 3-5 min. The membrane was removed, wrapped in preservative film, and transferred into dark room for exposure. After exposure with X-film, the film was developed, washed, recorded and conserved.
(§8) Semi-quantitative analysis was performed through optical density scan using computer image analysis system. Grey level of the protein expression was calculated. The target grey level was divided by the grey level of internal standard, and a histogram was plotted, taking the normal group as 1 unit.

[3] = system: AMP-Activated Protein Kinase (AMPK); test: Phosphorylation of AMPK in HepG2 cell (Western blot); format: cell-based, Human; conditions: HepG2, 50 uM, 5 minutes, P<0.01 or P<0.05
Procedure: as §1, §2, §3, §4, §5, §6, §7, §8

[4] = baseline (without insulin), relative to control

Compound: COc1cc(C(=O)O)c2c(c1C)OC(=O)c1c(C)cc(O)c(CNc3ccc(F)cc3)c1O2 [AA7, 4-[(4-Fluoro-phenylamino)-methyl]-3-hydroxy-8-methoxy-1,9-dimethyl-11-oxo-11H-dibenzo[b,e][1,4]dioxepine-6-carboxylic acid]
- Glucose uptake, Mean, Compound + Insulin Group (Control Group = 1.000) ([1]; 10 μM, 2 h incubation): 1.786
- fold induction at 10 µM [1, 4]: 1.13
- Level of phosphorylation for ACC protein versus DMSO control [2]: improved significantly

Compound: COc1ccc2c(c1)NC(=O)c1cc(Cl)c(O)cc1N2 [BT5, 2-Chloro-3-hydroxy-8-methoxy-5,10-dihydro-dibenzo[b,e][1,4]diazepin-11-one]
- Glucose uptake, Mean, Compound + Insulin Group (Control Group = 1.000) ([1]; 10 μM, 2 h incubation): 1.728
- fold induction at 10 µM [1, 4]: 1.23
- Level of phosphorylation for ACC protein versus DMSO control [2]: improved significantly

Compound: COc1cc(C(=O)O)c2c(c1C)OC(=O)c1c(C)cc(O)c(CNc3ccc(NC(C)=O)cc3)c1O2 [Compound D8, 4-[(4-Acetylamino-phenylamino)-methyl]-3-hydroxy-8-methoxy-1,9-dimethyl-11-oxo-11H-dibenzo[b,e][1,4]dioxepine-6-carboxylic acid]
- Glucose uptake, Mean, Compound + Insulin Group (Control Group = 1.000) ([1]; 10 μM, 2 h incubation): 3.877
- fold induction at 10 µM [1, 4]: 1.21
- Level of phosphorylation for ACC protein versus DMSO control [2]: improved significantly

Compound: CNC(=O)c1cc(OC)c(C)c2c1Oc1c(C=O)c(O)cc(C)c1C(=O)O2 [AB2, 4-Formyl-3-hydroxy-8-methoxy-1,9-dimethyl-11-oxo-11H-dibenzo[b,e][1,4]dioxepine-6-carboxylic acid methylamide]
- Glucose uptake, Mean, Compound + Insulin Group (Control Group = 1.000) ([1]; 10 μM, 2 h incubation): 1.639
- fold induction at 10 µM [1, 4]: 1.18

Compound: COc1cc(C(=O)O)c2c(c1C)OC(=O)c1c(C)cc(O)c(CN3CCN(Cc4ccccc4)CC3)c1O2 [Compound D4, 4-(4-Benzyl-piperazin-1-ylmethyl)-3-hydroxy-8-methoxy-1,9-dimethyl-11-oxo-11H-dibenzo[b,e][1,4]dioxepine-6-carboxylic acid]
- Glucose uptake, Mean, Compound + Insulin Group (Control Group = 1.000) ([1]; 10 μM, 2 h incubation): 3.717
- fold induction at 10 µM [1, 4]: 1.19

Compound: COc1cc(C(=O)O)c2c(c1C)OC(=O)c1c(C)cc(O)c(CNC(C)(C)C)c1O2 [Compound D3, 4-(tert-Butylamino-methyl)-3-hydroxy-8-methoxy-1,9-dimethyl-11-oxo-11H-dibenzo[b,e][1,4]dioxepine-6-carboxylic acid]
- Glucose uptake, Mean, Compound + Insulin Group (Control Group = 1.000) ([1]; 10 μM, 2 h incubation): 3.001
- fold induction at 10 µM [1, 4]: 1.12

Compound: CCCOC(=O)c1cc(OC)c(C)c2c1Oc1c(CNCCN3CCOCC3)c(O)cc(C)c1C(=O)O2 [AA6, 3-Hydroxy-8-methoxy-1,9-dimethyl-4-[(2-morpholin-4-yl-ethylamino)-methyl]-11-oxo-11H-dibenzo[b,e][1,4]dioxepine-6-carboxylic acid propyl ester]
- Level of phosphorylation for ACC protein versus DMSO control [2]: improved significantly
- Level of phosphorylation for AMPK protein versus DMSO control [3]: increased significantly

Compound: COc1cc(C(=O)Nc2ccc(S(N)(=O)=O)cc2)c2c(c1C)OC(=O)c1c(C)cc(O)c(C=Nc3ccc(S(N)(=O)=O)cc3)c1O2 [AB9, 3-Hydroxy-8-methoxy-1,9-dimethyl-11-oxo-4-[(4-sulfamoylphenyl)-iminomethyl]-11H-dibenzo[b,e][1,4]dioxepine-6-[carboxy-(4-sulfamoyl)phenylamide]]
- Glucose uptake, Mean, Compound Group (Control Group = 1.000) ([1]; 10 μM, 2 h incubation, baseline (without insulin), relative to control): 1.150
- Glucose uptake, Mean, Compound + Insulin Group (Control Group = 1.000) ([1]; 10 μM, 2 h incubation): 1.555

Compound: CCNC(=O)c1cc(OC)c(C)c2c1Oc1c(C=O)c(O)cc(C)c1C(=O)O2 [AB4, 4-Formyl-3-hydroxy-8-methoxy-1,9-dimethyl-11-oxo-11H-dibenzo[b,e][1,4]dioxepine-6-carboxylic acid ethylamide]
- Glucose uptake, Mean, Compound + Insulin Group (Control Group = 1.000) ([1]; 10 μM, 2 h incubation): 1.837
- fold induction at 10 µM [1, 4]: 1.11

Compound: Cc1cc2c(c(C(=O)O)c1)Nc1ncccc1C(=O)N2 [BT7, 8-Methyl-5-oxo-6,11-dihydro-5H-benzo[b]pyrido[2,3-e][1,4]diazepine-10-carboxylic acid]
- Level of phosphorylation for ACC protein versus DMSO control [2]: improved significantly
- Level of phosphorylation for AMPK protein versus DMSO control [3]: increased significantly

Compound: O=C1Oc2ccccc2Oc2ccccc21 [AA0, Dibenzo[b,e][1,4]dioxepin-11-one]
- Glucose uptake, Mean, Compound + Insulin Group (Control Group = 1.000) ([1]; 10 μM, 2 h incubation): 2.130
- fold induction at 10 µM [1, 4]: 1.12

Compound: COC(=O)c1cc(OC)c(C)c2c1Oc1c(C=O)c(O)cc(C)c1C(=O)O2 [Compound A0, 4-Formyl-3-hydroxy-8-methoxy-1,9-dimethyl-11-oxo-11H-dibenzo[b,e][1,4]dioxepine-6-carboxylic acid methyl ester]
- Glucose uptake, Mean, Compound + Insulin Group (Control Group = 1.000) ([1]; 10 μM, 2 h incubation): 2.710
- fold induction at 10 µM [1, 4]: 1.33
- Level of phosphorylation for ACC protein versus DMSO control [2]: improved significantly

Compound: CCCOC(=O)c1cc(OC)c(C)c2c1Oc1c(CNc3ccc(S(N)(=O)=O)cc3)c(O)cc(C)c1C(=O)O2 [AA5, 3-Hydroxy-8-methoxy-1,9-dimethyl-11-oxo-4-[(4-sulfamoyl-phenylamino)-methyl]-11H-dibenzo[b,e][1,4]dioxepine-6-carboxylic acid propyl ester]
- Level of phosphorylation for AMPK protein versus DMSO control [3]: increased significantly

Compound: COc1cc(C(=O)O)c2c(c1C)OC(=O)c1c(C)cc(O)c(CN3CCNCC3)c1O2 [Compound D1, 3-Hydroxy-8-methoxy-1,9-dimethyl-11-oxo-4-(piperazin-1-ylmethyl)-11H-dibenzo[b,e][1,4]dioxepine-6-carboxylic acid]
- Glucose uptake, Mean, Compound + Insulin Group (Control Group = 1.000) ([1]; 10 μM, 2 h incubation): 3.673
- fold induction at 10 µM [1, 4]: 1.28
- Level of phosphorylation for AMPK protein versus DMSO control [3]: increased significantly

Compound: COc1cnc2c(c1)NC(=O)c1ccc(O)c(C=O)c1N2 [BU0, 9-Hydroxy-3-methoxy-6-oxo-6,11-dihydro-5H-benzo[e]pyrido[3,2-b][1,4]diazepine-10-carbaldehyde]
- Glucose uptake, Mean, Compound + Insulin Group (Control Group = 1.000) ([1]; 10 μM, 2 h incubation): 2.147
- fold induction at 10 µM [1, 4]: 1.43
- Level of phosphorylation for AMPK protein versus DMSO control [3]: increased significantly
